Results: patent EP4603105A1, “PHARMACEUTICAL COMPOSITION CONTAINING CYCLIC COMPOUND HAVING SELECTIVE KRAS INHIBITORY EFFECT AGAINST HRAS AND NRAS” (CHUGAI SEIYAKU KABUSHIKI KAISHA, priority 2022, dated 2024)

Assays:
HRAS wild-type protein = HRAS wild-type protein (Homo sapiens, UniProt P01112); assay: Binding to HRAS by surface plasmon resonance (SPR), KD and KD ratio to KRAS; details: ratio of KD for HRAS wild-type protein to KD for KRAS
Method in brief: (§1)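 Running buffer contained 10 µM GDP and 10 mM MgCl2 to keep RAS in the GDP state, with 4% DMSO at pH 7.4. Compounds were flowed at 100 µL/min in 75 s steps of rising concentration over captured biotin-Avi RAS at 30°C. Sensorgrams were fitted 1:1 for KD.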

[1] = biological target: GDP-bound KRAS wild-type protein (Homo sapiens, UniProt P01116); assay: Binding to KRAS by surface plasmon resonance (SPR), dissociation constant KD; details: Single Cycle Kinetics
Method in brief: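 Biotinylated GDP-bound RAS was captured at about 100–300 RU. Running buffer: HBS pH 7.4, 10 mM MgCl2, 10 µM GDP, 1 mM DTT, 0.01% Tween 20, 4% DMSO.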

[2] = system: human lung cancer strain NCI-H441; assay: NCI-H441 cell proliferation inhibitory activity (CellTiter-Glo, 4 days); type: cell-based; details: NCI-H441 cells, 4 days, read-out: NCl-H441 IC50
Method in brief: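 Step one: dispense the test compound in serial DMSO dilutions. Step three: add the reagent and measure […].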

[3] = biological target: GDP-bound NRAS wild-type protein (Homo sapiens, UniProt P01111); assay: Binding to NRAS by surface plasmon resonance (SPR), KD and KD ratio to KRAS; details: ratio of KD for GDP-bound NRAS wild-type protein to KD for KRAS
Method in brief: as §1

Sequence of GDP-bound KRAS wild-type protein (P01116 1-188 isoform P01116-2): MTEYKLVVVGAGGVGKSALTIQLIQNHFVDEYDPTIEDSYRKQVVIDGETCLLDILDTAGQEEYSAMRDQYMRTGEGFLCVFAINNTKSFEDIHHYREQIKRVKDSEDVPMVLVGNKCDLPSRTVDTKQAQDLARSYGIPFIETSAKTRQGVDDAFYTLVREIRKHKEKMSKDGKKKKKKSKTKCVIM
Sequence of HRAS wild-type protein (P01112 whole entry): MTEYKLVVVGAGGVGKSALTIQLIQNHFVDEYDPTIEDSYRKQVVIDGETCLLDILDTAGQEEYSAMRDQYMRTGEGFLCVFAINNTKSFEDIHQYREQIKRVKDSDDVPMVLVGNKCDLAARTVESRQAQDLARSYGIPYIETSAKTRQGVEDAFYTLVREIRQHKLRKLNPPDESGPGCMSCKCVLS
Sequence of GDP-bound NRAS wild-type protein (P01111 whole entry): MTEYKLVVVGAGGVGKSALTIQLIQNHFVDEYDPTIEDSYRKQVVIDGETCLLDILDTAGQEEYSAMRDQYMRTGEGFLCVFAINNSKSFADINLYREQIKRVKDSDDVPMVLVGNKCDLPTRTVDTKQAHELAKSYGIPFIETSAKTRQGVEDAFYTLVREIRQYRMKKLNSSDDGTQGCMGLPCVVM

Row | SMILES | HRAS /KRAS (HRAS wild-type protein) | Kd [1] [nM] | IC50 [2] [nM] | NRAS /KRAS [3]
1 | CCC[C@H]1C(=O)N[C@@H]([C@@H](C)CC)C(=O)N(C)CC(=O)N(C)[C@H]2C/C=C\CCN(C2=O)[C@@H](Cc2ccc(C)cc2)C(=O)N(C)CC(=O)N[C@@H](CCc2ccc(C(F)(F)F)c(Cl)c2)C(=O)N2CC3(CC3)C[C@H]2C(=O)NC2(CCC2)C(=O)N(C)[C@@H]([C@@H](C)CC)C(=O)N(C)[C@H](C(=O)N(C)C)CC(=O)N1C [PP3426] | A (a compound having 10 or more and less than 20 is denoted as A) | 0.36 | 17.2 | A (a compound having 10 or more and less than 20 is denoted as A)
2 | CCC[C@H]1C(=O)N[C@@H](C2CCCC2)C(=O)N(C)CC(=O)N(C)[C@H]2C/C=C\CCN(C2=O)[C@@H](Cc2ccc(C)cc2)C(=O)N(C)CC(=O)N[C@@H](CCc2cc(F)c(C(F)(F)F)c(F)c2)C(=O)N2CC3(CC3)C[C@H]2C(=O)NC2(CCC2)C(=O)N(C)[C@@H](C(CC)CC)C(=O)N(C)[C@H](C(=O)N(C)C)CC(=O)N1C [PP3428] | A (a compound having 10 or more and less than 20 is denoted as A) | 0.77 | 18.7 | A (a compound having 10 or more and less than 20 is denoted as A)
3 | CCCO[C@@H]1C[C@H]2C(=O)NC3(CC(C)(C)C3)C(=O)N(C)[C@@H](C3CCCC3)C(=O)N(C)[C@H](C(=O)N(C)CC)CC(=O)N[C@@H](COCC)C(=O)N[C@@H]([C@@H](C)CC)C(=O)N(C3CC3)CC(=O)N(C)[C@H]3C/C=C\CCN(C3=O)[C@@H](Cc3ccc(C)cc3)C(=O)N(C)CC(=O)N[C@@H](CCc3ccc(C(F)(F)F)c(Cl)c3)C(=O)N2C1 [PP3429] | A (a compound having 10 or more and less than 20 is denoted as A) | 2.5 | 78.6 | A (a compound having 10 or more and less than 20 is denoted as A)
4 | CCC[C@H]1C(=O)N[C@@H](C2CCCC2)C(=O)N(C)CC(=O)N(C)[C@H]2C/C=C\CCN(C2=O)[C@@H](Cc2ccc(C)cc2)C(=O)N(C)CC(=O)N[C@@H](CCc2ccc(C(F)(F)F)c(OC)c2)C(=O)N2CC3(CC3)C[C@H]2C(=O)NC2(CCC2)C(=O)N(C)[C@@H](C(CC)CC)C(=O)N(C)[C@H](C(=O)N(C)C)CC(=O)N1C [PP3430] | A (a compound having 10 or more and less than 20 is denoted as A) | 0.7 | 29.8 | AA (a compound having 20 or more is denoted as AA)
5 | CCCO[C@@H]1C[C@H]2C(=O)NC3(CC(C)(C)C3)C(=O)N(C)[C@@H](C3CCCC3)C(=O)N(C)[C@H](C(=O)N(C)CC)CC(=O)N[C@@H](COCC)C(=O)N[C@@H]([C@@H](C)CC)C(=O)N3CCC[C@H]3C(=O)N(C)[C@H]3C/C=C\CCN(C3=O)[C@@H](Cc3ccc(C)cc3)C(=O)N(C)CC(=O)N[C@@H](CCc3ccc(C(F)(F)F)c(Cl)c3)C(=O)N2C1 [PP3431] | A (a compound having 10 or more and less than 20 is denoted as A) | 3 | 79.5 | A (a compound having 10 or more and less than 20 is denoted as A)
6 | CCC[C@H]1C(=O)N[C@@H](C2CCCC2)C(=O)N(C)CC(=O)N(C)[C@H]2C/C=C\CCN(C2=O)[C@@H](Cc2ccc(C)cc2)C(=O)N(C)CC(=O)N[C@@H](CCc2ccc(C(F)(F)F)c(Cl)c2)C(=O)N2CC3(CC3)C[C@H]2C(=O)NC2(CCC2)C(=O)N(C)[C@@H](C(CC)CC)C(=O)N(C)[C@H](C(=O)N(C)C)CC(=O)N1C [PP3432] | A (a compound having 10 or more and less than 20 is denoted as A) | 0.71 | 57.7 | AA (a compound having 20 or more is denoted as AA)
7 | CCC[C@H]1C(=O)N[C@@H](C2CCCC2)C(=O)N(C)CC(=O)N(C)[C@H]2C/C=C\CCN(C2=O)[C@@H](Cc2ccc(C)cc2)C(=O)N(C)CC(=O)N[C@@H](CCc2ccc(C(F)(F)F)c(Cl)c2)C(=O)N2CC3(CC3)C[C@H]2C(=O)NC2(CCC2)C(=O)N(C)[C@@H]([C@@H](C)CC)C(=O)N(C)[C@H](C(=O)N(C)C)CC(=O)N1C [PP3434] | A (a compound having 10 or more and less than 20 is denoted as A) | 0.76 | 26.8 | A (a compound having 10 or more and less than 20 is denoted as A)
8 | CCC[C@H]1C(=O)N[C@@H]([C@@H](C)CC)C(=O)N(C)CC(=O)N(C)[C@H]2C/C=C\CCN(C2=O)[C@@H](Cc2ccc(C(F)(F)F)cc2)C(=O)N(C)CC(=O)N[C@@H](CCc2cc(F)c(C(F)(F)F)c(F)c2)C(=O)N2CC3(CC3)C[C@H]2C(=O)NC2(CCC2)C(=O)N(C)[C@@H](C2CCCC2)C(=O)N(C)[C@H](C(=O)N(C)C)CC(=O)N1C [PP3436] | A (a compound having 10 or more and less than 20 is denoted as A) | 0.059 | 4.6 | A (a compound having 10 or more and less than 20 is denoted as A)
9 | CCCO[C@@H]1C[C@H]2C(=O)NC3(CC(C)(C)C3)C(=O)N(C)[C@@H](C3CCCC3)C(=O)N(C)[C@H](C(=O)N(C)CC)CC(=O)N[C@@H](COCC)C(=O)N[C@@H]([C@@H](C)CC)C(=O)N(C3CC3)CC(=O)N(C)[C@H]3C/C=C\CCN(C3=O)[C@@H](Cc3ccc(C)cc3)C(=O)N(C)CC(=O)N[C@@H](CCc3ccc(C(F)(F)F)c(OC)c3)C(=O)N2C1 [PP3437] | A (a compound having 10 or more and less than 20 is denoted as A) | 1.3 | 51.6 | AA (a compound having 20 or more is denoted as AA)
10 | CCC[C@H]1C(=O)N[C@@H]([C@@H](C)CC)C(=O)N(C)CC(=O)N(C)[C@H]2C/C=C\CCN(C2=O)[C@@H](Cc2ccc(C(F)(F)F)cc2)C(=O)N(C)CC(=O)N[C@@H](CCc2ccc(C(F)(F)F)c(OC)c2)C(=O)N2CC3(CC3)C[C@H]2C(=O)NC2(CCC2)C(=O)N(C)[C@@H](C2CCCC2)C(=O)N(C)[C@H](C(=O)N(C)C)CC(=O)N1C [PP3438] | A (a compound having 10 or more and less than 20 is denoted as A) | 0.062 | 8.9 | A (a compound having 10 or more and less than 20 is denoted as A)
11 | CCCO[C@@H]1C[C@H]2C(=O)NC3(CC(C)(C)C3)C(=O)N(C)[C@@H](C3CCCC3)C(=O)N(C)[C@H](C(=O)N(C)CC)CC(=O)N[C@@H](COCC)C(=O)N[C@@H]([C@@H](C)CC)C(=O)N3CCC[C@H]3C(=O)N(C)[C@H]3C/C=C\CCN(C3=O)[C@@H](Cc3ccc(C)cc3)C(=O)N(C)CC(=O)N[C@@H](CCc3ccc(C(F)(F)F)c(OC)c3)C(=O)N2C1 [PP3439] | A (a compound having 10 or more and less than 20 is denoted as A) | 1.7 | 148 | A (a compound having 10 or more and less than 20 is denoted as A)
12 | CCC[C@H]1C(=O)N[C@@H]([C@@H](C)CC)C(=O)N(C)CC(=O)N(C)[C@H]2C/C=C\CCN(C2=O)[C@@H](Cc2ccc(C(F)(F)F)cc2)C(=O)N(C)CC(=O)N[C@@H](CCc2ccc(C(F)(F)F)c(Cl)c2)C(=O)N2CC3(CC3)C[C@H]2C(=O)NC2(CCC2)C(=O)N(C)[C@@H](C2CCCC2)C(=O)N(C)[C@H](C(=O)N(C)C)CC(=O)N1C [PP3440] | A (a compound having 10 or more and less than 20 is denoted as A) | 0.047 | 12.1 | AA (a compound having 20 or more is denoted as AA)
13 | CCC[C@H]1C(=O)N[C@@H]([C@@H](C)CC)C(=O)N(C)CC(=O)N(C)[C@H]2C/C=C\CCN(C2=O)[C@@H](Cc2ccc(C)cc2)C(=O)N(C)CC(=O)N[C@@H](CCc2ccc(C(F)(F)F)c(Cl)c2)C(=O)N2CC3(CC3)C[C@H]2C(=O)NC2(CCC2)C(=O)N(C)[C@@H](C2CCCC2)C(=O)N(C)[C@H](C(=O)N(C)C)CC(=O)N1C [PP3442] | B (a compound having 3 or more and less than 10 is denoted as B) | 0.083 | 7.7 | A (a compound having 10 or more and less than 20 is denoted as A)
14 | CCCO[C@@H]1C[C@H]2C(=O)NC3(CC(C)(C)C3)C(=O)N(C)[C@@H](C3CCCC3)C(=O)N(C)[C@H](C(=O)N(C)CC)CC(=O)N[C@@H](COCC)C(=O)N[C@@H]([C@@H](C)CC)C(=O)N3C[C@@H](F)C[C@H]3C(=O)N(C)[C@H]3C/C=C\CCN(C3=O)[C@@H](Cc3ccc(C)cc3)C(=O)N(C)CC(=O)N[C@@H](CCc3ccc(C(F)(F)F)c(OC)c3)C(=O)N2C1 [PP3443] | A (a compound having 10 or more and less than 20 is denoted as A) | 0.75 | 73.5 | A (a compound having 10 or more and less than 20 is denoted as A)
